Molecules are shown by their SMILES.

Experiment [1] relates to Blumeria (Erysiphe) graminis DC. f.sp. tritici E. Marchal. Put plainly: Wheat Powdery Mildew (WPM) residual fungicidal activity, inoculation 4 or 5 days after spray application on wheat plants. The class given is in vivo. The settings on record: for Emax at 0.2 ppm / Emax at 1 ppm / Emax at 5 ppm / Emax at 25 ppm / Emax at 125 ppm: Blumeria, WPM 4/5 da R (4/5 day residual), wheat variety Kanzler, read-out: Disease control (% efficacy); for Emax at 0.2 ppm: rate 0.2 ppm; for Emax at 125 ppm: rate 125 ppm; for WPM 4 day residual % disease control: Comparison test (Table IV), 200 l/ha. From the text: (§1) • Wheat Powdery Mildew (WPM): • HOST: Wheat (Triticum aestivum L.) variety Kanzler • PATHOGEN: Blumeria (Erysiphe) graminis DC. f.sp. tritici E. Marchal
(§2) • 1. Wheat seed (approximately 8-10/pot) is planted in 6 cm diameter plastic pots and maintained in the greenhouse. • 2. When the primary leaf (wheat) is fully expanded, formulated test compounds are sprayed with a single nozzle overhead track sprayer at a rate of 200 l/ha. Plants are then allowed to air-dry. • 3. Inoculation precedes treatment by 3 days in the case of curative evaluations and follows treatment by 4 or 5 days in case of residual evaluations. For inoculation, plants are set up on greenhouse benches with bottom watering mats and inoculated by dusting them with conidia from powdery mildew infected plants (stock cultures at an age of 10-14 days). Between inoculation and treatment for curative evaluations and between treatment and inoculation for residual evaluations, plants are maintained in the greenhouse with bottom watering. • 4. Disease on the primary leaf as percent leaf area with disease symptoms/signs is evaluated about 7 days after inoculation. In the case of wheat, the tips and bases of the leaves are excluded from the evaluation.
(§3) Percent disease control is then calculated by the following formula: % disease control = 100 -(% infection in treated plants)/(% infection in untreated plants)x 100 [formula]
(§4) • 1. Technical compounds are formulated in a solvent/surfactant system consisting of 5% acetone and 0.05% Tween 20 in deionized water. Compounds are dissolved in acetone prior to addition of the water; the Tween 20 can be added through either the acetone or the water. Dilutions are made using the solvent/surfactant system. Formulated compounds are prepared using deionized water. • 2. Two kinds of controls are included: • Plants treated with the solvent/surfactant solution and inoculated (Solvent Blank). • Untreated plants which are inoculated (Inoculated Control).
4/5 da R = 4/5 day residual Inoculation 4 or 5 days AFTER application
(§5) The fungicidal activity against wheat powdery mildew of the hydroxybenzophenones according to this invention has been compared with a fungicidal benzophenone known from EP 0 727 141 in the following table. Compounds applied to seedling wheat plants using a single-nozzle overhead track sprayer at an application rate of 200 l/ha.

The test system is the same in experiment [2]. In words: Wheat Powdery Mildew (WPM) curative fungicidal activity, inoculation 3 days before spray application on wheat plants. The settings on record: for Emax at 0.2 ppm / Emax at 1 ppm / Emax at 5 ppm / Emax at 25 ppm / Emax at 125 ppm: Blumeria, 72 h, WPM 3 da C (3 day curative), wheat variety Kanzler, read-out: Disease control (% efficacy); for Emax at 0.2 ppm: rate 0.2 ppm; for Emax at 125 ppm: rate 125 ppm; for WPM 3 day curative % disease control / WPM 3 day curative Antisporulation effect: Comparison test (Table IV), 200 l/ha. Also on record: key to WPM 3 day curative Antisporulation effect: +++ = complete (no spore release); ++ = moderate; + = slight; o = none. The class given is in vivo.
Excerpt: as §1, §2, §3, §4, §5

With `COc1cc(C)c(C(=O)c2c(OC(C)=O)ccc(Br)c2C)c(OC)c1OC` [Example 1, 2-acetoxy-5-bromo-6,6'-dimethyl-2',3',4'-trimethoxybenzophenone], the Emax at 0.2 ppm in experiment [1] is 53%; in experiment [2], 2%. The Emax at 1 ppm amounted to 84% in experiment [1] (rate 1 ppm) and 17% in experiment [2] (rate 1 ppm). Further, the values for the Emax at 5 ppm in experiment [1] (rate 5 ppm) and in experiment [2] (rate 5 ppm) were 98% and 33%, respectively. The Emax at 25 ppm in experiment [1] (rate 25 ppm) was 100%; in experiment [2] (rate 25 ppm) it was 49%. Further, the Emax at 125 ppm in experiment [1] was found to be 100%; in experiment [2], 55%.
With `CCCCOc1c(OC)c(OC)cc(C)c1C(=O)c1c(Cl)cccc1Cl` [standard, 2'-n-butyloxy-2,6-dichloro-3',4'-dimethoxy-6'-methylbenzophenone, reference compound], the “WPM 4 day residual % disease control” value was determined as 15% in experiment [1] (rate 1 ppm), 47% in experiment [1] (rate 5 ppm) and 92% in experiment [1] (rate 25 ppm). Moreover, the “WPM 3 day curative % disease control” value is reported as 0% in experiment [2] (rate 1 ppm), 3% in experiment [2] (rate 5 ppm) and 6% in experiment [2] (rate 25 ppm). The “WPM 3 day curative Antisporulation effect” value in experiment [2] (rate 1 ppm) was 0; in experiment [2] (rate 5 ppm) it was 0; in experiment [2] (rate 25 ppm), “+”.
For the molecule `COc1cc(C)c(C(=O)c2c(O)ccc(Br)c2C)c(OC)c1OC` [Example 2, 5-bromo-6,6'-dimethyl-2-hydroxy-2',3',4'-trimethoxybenzophenone], in experiment [1], the Emax at 0.2 ppm turned out to be 86% and the Emax at 125 ppm was 100%. For the same molecule, in experiment [1] (rate 1 ppm), the Emax at 1 ppm stood at 98% and the “WPM 4 day residual % disease control” value was 52%. In experiment [1] (rate 5 ppm), the Emax at 5 ppm stood at 100% and the “WPM 4 day residual % disease control” value is 78%. In experiment [1] (rate 25 ppm), the Emax at 25 ppm was found to be 100% and the “WPM 4 day residual % disease control” value is given as 100%. Further, in experiment [2], the Emax at 0.2 ppm came out at 13% and the Emax at 125 ppm stood at 59%. In addition, in experiment [2] (rate 1 ppm), the Emax at 1 ppm was 23%, the “WPM 3 day curative % disease control” value was 10% and the “WPM 3 day curative Antisporulation effect” value is given as “+”. For the same molecule, in experiment [2] (rate 5 ppm), the Emax at 5 ppm turned out to be 37%, the “WPM 3 day curative % disease control” value was determined as 22% and the “WPM 3 day curative Antisporulation effect” value is recorded as “+”. Also, in experiment [2] (rate 25 ppm), the Emax at 25 ppm amounted to 53%, the “WPM 3 day curative % disease control” value worked out at 40% and the “WPM 3 day curative Antisporulation effect” value is listed as “+++”.
